According to patent publication US9289411B2, “Anti-HCV agent” (NATIONAL UNIVERSITY CORPORATION OKAYAMA UNIVERSITY, priority 2011, dated 2016):

Columns and labels:
[1] = test system: HCV-RNA replication in ORL8 cells (HCV-O strain, Li23-derived); assay: microbe, parasite or virus in culture; details: for EC50: Hepatitis C virus, ORL8, 72 h; for SI (CC50/EC50) / suppression of the level of HCV-RNA replication: ORL8 cells; for suppression of the level of HCV-RNA replication: 1 μM
Excerpt: (§1) Assay systems using OR6 cells (HCV-O strain), 1B-4R cells (HCV-1B-4 strain), and AH1R cells (HCV-AH1R strain) as HuH-7 cell-derived full-length HCV-RNA-replicating cells, and ORL8 cells (HCV-O strain), ORL11 cells (HCV-O strain), 1B-4RL cells (HCV-1B-4 strain), and KAH5RL cells (HCV-KAH5 strain) as Li23 cell-derived full-length HCV-RNA-replicating cells were used for the quantitative analysis of anti-HCV activity and evaluation of a cytotoxic effect in the present invention. The three cell lines, i.e., the 1B-4R cells, the 1B-4RL cells, and the KAH5RL cells have been disclosed in WO 2010/026965 A1. The AH1R cells may be produced with reference to Mori K et al., BBRC, 371:104-109, 2008 and WO 2010/026965 A1. In addition, all the HCV strains belong to genotype 1b.
As necessary, an increase or decrease in expression level of an HCV protein (core protein) was examined by a Western blot method.
(§2) In the measurement of the renilla luciferase activity and the measurement by the WST-1 method, experiments were performed in three wells independent of each other, and their means and standard deviation were calculated.
The anti-HCV activities of N-89 and N-251 were examined using ORL8 cells and the EC50 values were calculated. An experimental scale and schedule are the same as those in Example 1.
N-89 and N-251 were added so as to achieve concentrations of 5 μM, a 2-fold dilution series from 5 μM (2.5, 1.3, 0.63, 0.31, 0.16, and 0.08 μM), and 0. The luciferase activities were measured 72 hours after the culture.
The anti-HCV activity of artemisinin was examined using OR6 cells and ORL8 cells and the EC50 values were calculated. An experimental scale and schedule are the same as those in Example 1.
Artemisinin was added so as to achieve concentrations of 100 μM, a 2-fold dilution series from 100 μM (50, 25, 13, 6.3, 3.1, and 1.6 μM), and 0. The luciferase activities were measured 72 hours after the culture.

ORL8 cells = assay: Cytotoxic effect, WST-1 cell proliferation assay in ORL8 cells; details: ORL8 cells
Excerpt: as §1, §2
The cytotoxic effects of N-89 and N-251 were examined using ORL8 cells and the CC50 values were calculated. An experimental scale and schedule are the same as those in Example 1.
N-89 and N-251 were added so as to achieve concentrations of 5 μM, a 2-fold dilution series from 5 μM (2.5, 1.3, 0.63, 0.31, 0.16, and 0.08 μM), and 0. The WST-1 cell proliferation assay was performed 72 hours after the culture.
The cytotoxic effect of artemisinin was examined using OR6 and ORL8 cells and the CC50 values were calculated. An experimental scale and schedule are the same as those in Example 1. Artemisinin was added so as to achieve concentrations of 400 μM, a 2-fold dilution series from 400 μM (200, 100, 50, 25, and 13 μM), and 0. The WST-1 cell proliferation assay was performed 72 hours after the culture.

[2] = test system: HCV-RNA replication in ORL8 cells; assay: Effect of antioxidant vitamin E on anti-HCV activity in ORL8 cells (luciferase activity); assay type: cell-based, HCV genotype 1b; details: for luciferase activity, compound in combination with vitamin E: compound 0.5 μM + vitamin E 10 μM; for luciferase activity, compound in combination with vitamin E / luciferase activity (HCV activity), compound alone: 72 hours; for luciferase activity (HCV activity), compound alone: compound 0.5 μM alone; for canceling of the anti-HCV activity by vitamin E: vitamin E 10 μM
Experimental: The effect of addition of vitamin E on the anti-HCV activity of N-89 was examined using ORL8 cells. An experimental scale and schedule are the same as those in Example 1.
N-89 and vitamin E were simultaneously added so that the concentrations of N-89 and vitamin E were set to 0.5 μM and 10 μM, respectively. The luciferase activity was measured 72 hours after the culture.
The effect of addition of vitamin E on the anti-HCV activity of N-251 was examined using ORL8 cells. An experimental scale and schedule are the same as those in Example 1.
N-251 and vitamin E were simultaneously added so that the concentrations of N-251 and vitamin E were set to 0.5 μM and 10 μM, respectively. The luciferase activity was measured 72 hours after the culture.
The effect of addition of vitamin E on the anti-HCV activity of artemisinin was examined using ORL8 cells. An experimental scale and schedule are the same as those in Example 1.
Artemisinin and vitamin E were simultaneously added so that the concentrations of artemisinin and vitamin E were set to 100 μM and 10 μM, respectively. The luciferase activity was measured 72 hours after the culture.

[3] = test system: HCV-RNA replication in OR6, 1B-4R, AH1R, ORL8, ORL11, 1B-4RL and KAH5RL cells; assay: Anti-HCV activity summarized over cells derived from various HCV strains (reporter assays); assay type: cell-based, HCV genotype 1b; details: Hepatitis C virus, seven full-length HCV-RNA-replicating cell lines, read-out: EC50 values, range over all cells
renilla luciferase [4] = assay: Influence on renilla luciferase activity in lysate of ORL8 cells; assay type: biochemical; details: ORL8 cell lysate, concentrations of up to 20 μM
Experimental: In the ORL8 cells, the anti-HCV activity is evaluated by measuring the activity of renilla luciferase as a product of an exogenous gene introduced so as to be linked to HCV RNA.
(§3) Thus, N-89 or N-251 was added (5 μL) to a lysate (10 μL) of the ORL8 cells (1×10^5 cells, medium for Li23 cell line) so as to achieve final concentrations of 0, 5, 10, and 20 μM, and 50 μL of a substrate were further added thereto. Then, the luciferase activity was measured.
An actual luciferase activity value (RL activity value) at 100% on the ordinate axis was 2.2×10^5 in the case of N-89 and 2.8×10^5 in the case of N-251.

renilla luciferase [5] = assay: Influence on renilla luciferase activity in lysate of OR6 cells; assay type: biochemical; details: OR6 cell lysate, concentrations of up to 20 μM
Experimental: as §3
Also in OR6 cells (medium for HuH-7 cell line), the renilla luciferase activity was measured by the same technique as in Example 6.
An actual luciferase activity value (RL activity value) at 100% on the ordinate axis was 1.1×10^6 in both of N-89 and N-251.

[6] = test system: HCV-RNA replication in ORL11 cells (HCV-O strain, Li23-derived); assay: microbe, parasite or virus in culture; assay type: cell-based, HCV genotype 1b; details: for EC50: Hepatitis C virus, 72 hours, renilla luciferase activity
Experimental: N-89 was added so as to achieve concentrations of 500 nM, a 2-fold dilution series from 500 nM (250, 125, 63, 31, 16, and 8 nM), and 0. The luciferase activities were measured 72 hours after the culture.
N-251 was added so as to achieve concentrations of 1 μM, a 2-fold dilution series from 1 μM (500, 250, 125, 63, 31, and 16 nM), and 0. The luciferase activities were measured 72 hours after the culture.

[7] = test system: HCV core protein in OR6 cells; assay: Western blot analysis of HCV core protein expression in OR6 cells; assay type: cell-based, HCV genotype 1b; details: 72 hours, N-89 0.31-20 μM, N-251 0.16-10 μM
Experimental: N-89 and N-251 were diluted with DMSO. After 72 hours, sampling was performed with 100 μL of 2×SDS buffer. 10 μL of a sample were applied to SDS-PAGE electrophoresis and subjected to Western blot analysis using an anti-HCV core antibody and an anti-β-actin antibody according to a conventional method. For the detection of β-actin, a sample diluted 10-fold with 2×SDS buffer in advance was used because the expression amount of β-actin was high.

Compound | EC50 [1] [nM] | SI (CC50/EC50) [1] | suppression of the level of HCV-RNA replication [1] [%] | cytotoxicity at 1 μM (WST-1 assay) (ORL8 cells) | luciferase activity, compound in combination with vitamin E [2] [%] | luciferase activity (HCV activity), compound alone [2] [%] | canceling of the anti-HCV activity by vitamin E [2] | EC50 [3] [nM] | inhibition on the renilla luciferase activity (renilla luciferase [4]) | inhibition on the renilla luciferase activity (renilla luciferase [5]) | SI (CC50/EC50) [6] | EC50 [6] [nM] | level of the HCV core protein (Western blot) [7] | CC50 (ORL8 cells; 72 hours, WST-1) [nM]
C1CCCCCC2(CCCCC1)OOCCCOO2 [N-89, 1,2,6,7-tetraoxaspiro[7,11]nonadecane] | 89 | 26 | 99 | not exhibiting cytotoxicity | 245 | 27 | completely canceled | 25 to 660 | did not show any inhibition | did not show any inhibition | 12 | 45 | reduced depending on the concentrations | –
OCCCCCCC1COOC2(CCCCCCCCCCC2)OOC1 [N-251, 6-(1,2,6,7-tetraoxaspiro[7,11]nonadec-4-yl)] | 100 | 13 | 99 | not exhibiting cytotoxicity | 215 | 33 | completely canceled | 59 to 980 | did not show any inhibition | did not show any inhibition | 19 | 59 | reduced depending on the concentrations | 1300
